Measured values taken from paper PMC12051030, “Identification of inhibitors of the Salmonella FraB deglycase, a drug target” (FEBS Open Bio, 2025).
Read-outs that look alike come from different tables or passages of the source.

Target: His6‐FraB (Salmonella FraB deglycase) (Salmonella enterica subsp. enterica serovar Typhimurium, UniProt Q8ZLD0)
Test: FraB-G6PD coupled assay, Michaelis–Menten analysis for K I and mode of inhibition
Type: biochemical
Conditions: for change of IC50 values with increasing [S]/K m: 'this trend' = IC50 does not vary with [S]/K m, change evident only from 0.2 to 1.6× [S]/K m; for slope in plots of 1/IC50 vs. v o/V max: Fig. S12; for K IU/K IC ratio: average (±SE), from 1/IC50 versus v o/V max plots; for mode of inhibition: kinetic analyses (Lineweaver‐Burk, α′ vs [I], IC50 vs [S]/K m, 1/IC50 vs v o/V max)
Protocol: To determine the K I of each inhibitor, 29 μL of master mix was added to two rows of a 384‐well Greiner plate, using a single‐channel pipette, and incubated at 20 °C for 20 min. A 12‐channel pipette was then used to transfer and mix 1 μL of varying [6‐P‐F‐Asp] to all 48 wells. The final reaction (30 μL) consisted of 25 mM HEPES pH 8.0 at 20 °C, 5 mM MgCl2, 0.1 mM EGTA, 0.5 mM NAD^+, 1 mU G6PD, 100 nM His6‐FraB, varying (6‐P‐F‐Asp) (between 8 and 12 concentrations), and varying [inhibitor] (between three and five concentrations) in 10% (v/v) DMSO. NADH fluorescence was monitored every 10 s for 10 min total on a SPARK® multi‐mode multiplate reader (Tecan), as described above, and plotted against time. Slopes of the linear range of each curve were converted to initial velocities, as described above, that were then plotted against [6‐P‐F‐Asp]. A hyperbolic curve was then fitted to the data to obtain the k cat and K m values according to the formula: v o = (V max × [S])/(K m + [S]).
To determine the correlation between the observed and expected initial velocities (Fig. S5A), these values were exported from Kaleidagraph, plotted against one another, and a curve was fit using the formula: y = mx + b. The differences between observed and expected initial velocities (residuals) were then depicted as box‐and‐whisker plots (Fig. S5B). Lineweaver‐Burk plots were generated by graphing 1/v o versus 1/[S] and curves were fit to the data with Kaleidagraph using the formula: 1/v o = (Km/V max).(1/[S]) + (1/V max). The k cat and K m parameters were then converted into α′ values by dividing the k cat of the control (no inhibitor) by either itself (α′= 1) or the k cat of test samples with variable [inhibitor]. Those α′ values were plotted against [inhibitor] and K I values were determined from the equation α = 1 + [I]/K I.
The initial velocities used to generate the Michaelis–Menten plots were also employed to obtain the IC50 vs [S]/K m plots. For a given [S], initial velocities were converted into relative activities and plotted versus [inhibitor]. […] The IC50 values determined from the IC50 vs [S]/K m plots were then used to plot 1/IC50 versus v o/V max. A curve was fit to the data using the formula: y = mx + b. The Y‐intercept of the 1/IC50 versus v o/V max plot is equal to 1/K IC, and the slope, for mixed inhibitors, is equal to 1/K IU – 1/K IC. […] Data analyses were performed as described above (see Tables S1–S7 for curve‐fit errors and goodness‐of‐fit values).

[1] = Trial 1, 6-P-F-Asp 7.38 µM, S/Km 0.175714, unit from Fig. S11 axis, read-out: IC50 (IC50 versus [S]/Km plots)
[2] = Trial 1, 6-P-F-Asp 15.7 µM, S/Km 0.37381, unit from Fig. S11 axis, read-out: IC50 (IC50 versus [S]/Km plots)
[3] = Trial 1, 6-P-F-Asp 31.3 µM, S/Km 0.745238, unit from Fig. S11 axis, read-out: IC50 (IC50 versus [S]/Km plots)
[4] = Trial 1, 6-P-F-Asp 62.5 µM, S/Km 1.488095, unit from Fig. S11 axis, read-out: IC50 (IC50 versus [S]/Km plots)
[5] = Trial 1, 6-P-F-Asp 125 µM, S/Km 2.97619, unit from Fig. S11 axis, read-out: IC50 (IC50 versus [S]/Km plots)
[6] = Trial 1, 6-P-F-Asp 250 µM, S/Km 5.952381, unit from Fig. S11 axis, read-out: IC50 (IC50 versus [S]/Km plots)
[7] = Trial 1, 6-P-F-Asp 500 µM, S/Km 11.90476, unit from Fig. S11 axis, read-out: IC50 (IC50 versus [S]/Km plots)
[8] = Trial 1, 6-P-F-Asp 750 µM, S/Km 17.85714, unit from Fig. S11 axis, read-out: IC50 (IC50 versus [S]/Km plots)
[9] = Trial 1, 6-P-F-Asp 1000 µM, S/Km 23.80952, unit from Fig. S11 axis, read-out: IC50 (IC50 versus [S]/Km plots)
[10] = Trial 1, 6-P-F-Asp 2000 µM, S/Km 47.61905, unit from Fig. S11 axis, read-out: IC50 (IC50 versus [S]/Km plots)
[11] = Trial 1, 6-P-F-Asp 3000 µM, S/Km 71.42857, unit from Fig. S11 axis, read-out: IC50 (IC50 versus [S]/Km plots)
[12] = Trial 2, 6-P-F-Asp 7.38 µM, S/Km 0.175714, unit from Fig. S11 axis, read-out: IC50 (IC50 versus [S]/Km plots)
[13] = Trial 2, 6-P-F-Asp 15.7 µM, S/Km 0.37381, unit from Fig. S11 axis, read-out: IC50 (IC50 versus [S]/Km plots)
[14] = Trial 2, 6-P-F-Asp 31.3 µM, S/Km 0.745238, unit from Fig. S11 axis, read-out: IC50 (IC50 versus [S]/Km plots)
[15] = Trial 2, 6-P-F-Asp 62.5 µM, S/Km 1.488095, unit from Fig. S11 axis, read-out: IC50 (IC50 versus [S]/Km plots)
[16] = Trial 2, 6-P-F-Asp 125 µM, S/Km 2.97619, unit from Fig. S11 axis, read-out: IC50 (IC50 versus [S]/Km plots)
[17] = Trial 2, 6-P-F-Asp 250 µM, S/Km 5.952381, unit from Fig. S11 axis, read-out: IC50 (IC50 versus [S]/Km plots)
[18] = Trial 2, 6-P-F-Asp 500 µM, S/Km 11.90476, unit from Fig. S11 axis, read-out: IC50 (IC50 versus [S]/Km plots)
[19] = Trial 2, 6-P-F-Asp 750 µM, S/Km 17.85714, unit from Fig. S11 axis, read-out: IC50 (IC50 versus [S]/Km plots)
[20] = Trial 2, 6-P-F-Asp 1000 µM, S/Km 23.80952, unit from Fig. S11 axis, read-out: IC50 (IC50 versus [S]/Km plots)
[21] = Trial 2, 6-P-F-Asp 2000 µM, S/Km 47.61905, unit from Fig. S11 axis, read-out: IC50 (IC50 versus [S]/Km plots)
[22] = Trial 2, 6-P-F-Asp 3000 µM, S/Km 71.42857, unit from Fig. S11 axis, read-out: IC50 (IC50 versus [S]/Km plots)
[23] = from Michaelis–Menten analysis of FraB at different inhibitor concentrations, average and standard error from two measurements, read-out: K I

Chain of His6‐FraB (Salmonella FraB deglycase) (Q8ZLD0 entry or part of it): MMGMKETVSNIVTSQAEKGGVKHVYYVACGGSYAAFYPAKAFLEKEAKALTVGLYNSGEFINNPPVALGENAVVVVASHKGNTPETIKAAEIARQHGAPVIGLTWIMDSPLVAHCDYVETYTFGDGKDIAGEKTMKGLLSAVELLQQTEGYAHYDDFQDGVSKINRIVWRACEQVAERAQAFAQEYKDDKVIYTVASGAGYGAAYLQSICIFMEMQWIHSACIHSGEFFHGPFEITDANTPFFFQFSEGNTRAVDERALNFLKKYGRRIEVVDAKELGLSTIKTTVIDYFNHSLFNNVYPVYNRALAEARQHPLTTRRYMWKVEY

O=c1[nH][nH]c(=S)n1Cc1ccccc1 [1533:K12, 4‐benzyl‐5‐sulfanylidene‐1,2,4‐triazolidin‐3‐one]
change of IC50 values with increasing [S]/K m: modest decrease | slope in plots of 1/IC50 vs. v o/V max: weakly positive | IC50 [1]: 26.2 µM | IC50 [2]: 24.1 µM | IC50 [3]: 18.5 µM | IC50 [4]: 18.3 µM | IC50 [5]: 18.1 µM | IC50 [6]: 19.6 µM | IC50 [7]: 18.7 µM | IC50 [8]: 20.1 µM | IC50 [9]: 16.7 µM | IC50 [10]: 18.6 µM | IC50 [11]: 21.2 µM | IC50 [12]: 24.9 µM | IC50 [13]: 24.7 µM | IC50 [14]: 26.5 µM | IC50 [15]: 25.9 µM | IC50 [16]: 24 µM | IC50 [17]: 23.8 µM | IC50 [18]: 21.8 µM | IC50 [19]: 20.5 µM | IC50 [20]: 21.1 µM | IC50 [21]: 20.8 µM | IC50 [22]: 20.7 µM | K IU/K IC ratio: 0.75 ± 0.05 | Ki [23]: 12 ± 1 µM | Ki (independent trial shown in Fig. S11 panels A-L, read-out: KI from α′ vs [I] plot): 13 µM | mode of inhibition: mixed‐type uncompetitive | IC50 (single trial shown in Fig. 5, read-out: IC50, mean and standard deviation of all IC50 values in IC50 vs [S]/Km plot): 23 ± 2 µM | Ki (single trial shown in Fig. 5, read-out: KI from α′ vs [I] plot): 11 µM

O=c1sn(-c2ccccc2C(F)(F)F)c(=O)n1CC1CC1 [1524:G12, 4‐(cyclopropylmethyl)‐2‐[2‐(trifluoromethyl)phenyl]‐1,2,4‐thiadiazolidine‐3,5‐dione]
change of IC50 values with increasing [S]/K m: exhibit this trend | slope in plots of 1/IC50 vs. v o/V max: no | IC50 [1]: 1.08 µM | IC50 [2]: 1.39 µM | IC50 [3]: 1.54 µM | IC50 [4]: 1.44 µM | IC50 [5]: 1.55 µM | IC50 [6]: 1.47 µM | IC50 [7]: 1.59 µM | IC50 [8]: 1.51 µM | IC50 [9]: 1.36 µM | IC50 [10]: 1.44 µM | IC50 [11]: 1.65 µM | IC50 [12]: 1.91 µM | IC50 [13]: 1.49 µM | IC50 [14]: 1.54 µM | IC50 [15]: 1.64 µM | IC50 [16]: 1.36 µM | IC50 [17]: 1.27 µM | IC50 [18]: 1.41 µM | IC50 [19]: 1.42 µM | IC50 [20]: 1.44 µM | IC50 [21]: 1.37 µM | IC50 [22]: 1.66 µM | K IU/K IC ratio: 0.9 ± 0.1 | Ki [23]: 1 µM | mode of inhibition: pure noncompetitive inhibitors
